Assay results as given in patent EP0165492B1, “Process for manufacturing preparations promoting wound healing, and such preparations” (BERLIN-CHEMIE Aktiengesellschaft, priority 1984, dated 1992).

What was measured:
[1] = tested on: Kapillaren; settings: conclusion from morphometry (Tables 11 and 12); controls = 100 %
Text: Mit Hilfe des Punktzählverfahrens (BUNTROCK et al: Exper. Pathol. 21 (1982) 62-67) wurden die prozentualen Volumenanteile der Kapillaren (VVCAP), unterteilt nach Endothelzellen (VVEC), Endothelzellkerne (VVNEC), Endothelsellzytoplasma (VVCYT) einerseits und Kapillarlumen (VVCAPL) andererseits bestimmt. Die Kontrollen wurden wiederum mit 100 % festgelegt.
Die Ergebnisse sind in der Tabelle 12 dargestellt.

[2] = tested on: Endothelzellen; settings: versus rats treated with isotonic saline (= 100 %); treatment as in Example 1
Protocol: Unter die Rückenhaut von 2 Monate alten Ratten mit einem Körpergewicht von 220 bis 270 g werden Polyvinylringe mit einem Basisdurchmesser von 19 mm unter sterilen Kautelen implantiert (Test nach RUDAS, modifiziert nach BECK, WIEGERS-HAUSEN und JUNG, Acta bio. med. Germ. 13, (1964)).
Der Ring liegt auf der Fascis der Rückenmuskulatur. Am Operationstag werden je 1,0 ml sterile, isotone Kochsalzlösung (Kontrolle) bzw. die gleiche Menge an Kochsalzlösung mit den darin enthaltenen Wirkstoffen appliziert. Die Wunde der Rückenhaut über dem Ring wird danach verschlossen. Am 2. bzw. am 2., 4. und 6. Tag post operationem (p. op.) erfolgen nochmalige Injektionen durch die Haut in den Ring, wobei jeweils 0,2 ml sterile, isotone Kochsalzlösung mit jeweils 20 % der am Operationstag gegebenen Wirkstoffmenge appliziert werden. Im Fall der Kontrolle erfolgt eine Injektion von 0,2 ml Kochsalzlösung ohne Wirkstoff.
Als Kontrolltiere dienten mit isotoner Kochsalzlösung behandelte Ratten, deren Zählwerte gleich 100 % gesetzt wurden. […] Das Vorgehen der Behandlung entspricht dem Beispiel 1.

[3] = tested on: experimentell gesetzte Wunden; settings: intraperitoneal, 20 mg/kg Ratte; cited from earlier work
[4] = tested on: durch Zahnextraktion entstandene Wunden; settings: local application (Salbe, Lutschtabletten); cited from earlier work

Substance	Angiogenese fördernde Wirkung [1]	Anzahl der Endothelzellkerne der Kapillaren [2]	Wundheilung [3]	Wundheilung [4]
N-4-Nitrobenzylocarbonyl-lysyl-Prolin-Hydrochlorid [Lys[Z(NO2)]-Pro·HCl]	Angiogenese fördernde Wirkung	signifikante Zunahme	–	–
ß-Alanyl-L-Histidin [L-Carnosin]	–	–	günstig beeinflussen	günstig beeinflussen
